Source: patent US10556907B2 (AbbVie Inc., priority 2015, dated 2020)
Structures can show the parent of a compound that is named as a salt.

Columns and labels:
Assay in all cases: Method 1: intracellular Ca2+ release (FLIPR, Calcium 5) in recombinant CHO-K1 cells
Type in all cases: cell-based
[1] = molecular target: T1, human S1PR5 receptor (Homo sapiens, UniProt Q9H228); settings: agonist potency, determined with method 1 (symbols A-D); read-out: S1P5 EC50 range
T1 construct: host or cells: CHO-K1
Summary of the method: (§1)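 Cells expressing the receptor with promiscuous Gq/i5 are dye-loaded, equilibrated at room temperature and challenged with test compound while fluorescence is recorded by FLIPR. Potency is derived by nonlinear fitting after normalization to phospho-fingolimod.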

[2] = molecular target: T2, human S1PR1 receptor (Homo sapiens, UniProt P21453); settings: (1): determined with method 1; read-out: S1P1 EC50
T2 construct: host or cells: CHO-K1
Summary of the method: as §1

[3] = molecular target: T3, human S1PR4 receptor (Homo sapiens, UniProt O95977); settings: (1): determined with method 1; read-out: S1P4 EC50
T3 construct: host or cells: CHO-K1
T3 sequence (O95977 1-384): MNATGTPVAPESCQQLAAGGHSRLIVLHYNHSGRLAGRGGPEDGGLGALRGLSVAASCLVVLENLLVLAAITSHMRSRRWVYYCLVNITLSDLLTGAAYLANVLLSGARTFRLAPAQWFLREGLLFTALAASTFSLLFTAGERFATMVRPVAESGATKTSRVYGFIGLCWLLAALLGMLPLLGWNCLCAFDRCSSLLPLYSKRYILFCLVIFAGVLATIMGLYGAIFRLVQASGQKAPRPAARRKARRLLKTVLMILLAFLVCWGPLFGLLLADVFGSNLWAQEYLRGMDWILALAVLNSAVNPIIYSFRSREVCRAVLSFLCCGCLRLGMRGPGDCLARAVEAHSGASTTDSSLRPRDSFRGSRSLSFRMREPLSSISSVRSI
Summary of the method: as §1

[4] = molecular target: T4, human S1PR3 receptor (Homo sapiens, UniProt Q99500); settings: (1): determined with method 1; read-out: S1P3 EC50
T4 construct: host or cells: CHO-K1
Summary of the method: as §1

T1 sequence (Q9H228 whole entry): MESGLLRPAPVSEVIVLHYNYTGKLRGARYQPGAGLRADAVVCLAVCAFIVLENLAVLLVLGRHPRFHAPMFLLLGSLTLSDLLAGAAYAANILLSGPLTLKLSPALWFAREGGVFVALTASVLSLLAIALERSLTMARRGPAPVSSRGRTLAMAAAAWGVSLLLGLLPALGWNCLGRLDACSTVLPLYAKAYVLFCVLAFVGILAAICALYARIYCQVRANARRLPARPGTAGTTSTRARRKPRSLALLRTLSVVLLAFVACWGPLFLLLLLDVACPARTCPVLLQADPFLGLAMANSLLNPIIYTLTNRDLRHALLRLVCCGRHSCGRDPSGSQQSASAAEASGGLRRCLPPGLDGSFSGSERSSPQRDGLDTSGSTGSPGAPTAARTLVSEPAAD
T2 sequence (P21453 whole entry): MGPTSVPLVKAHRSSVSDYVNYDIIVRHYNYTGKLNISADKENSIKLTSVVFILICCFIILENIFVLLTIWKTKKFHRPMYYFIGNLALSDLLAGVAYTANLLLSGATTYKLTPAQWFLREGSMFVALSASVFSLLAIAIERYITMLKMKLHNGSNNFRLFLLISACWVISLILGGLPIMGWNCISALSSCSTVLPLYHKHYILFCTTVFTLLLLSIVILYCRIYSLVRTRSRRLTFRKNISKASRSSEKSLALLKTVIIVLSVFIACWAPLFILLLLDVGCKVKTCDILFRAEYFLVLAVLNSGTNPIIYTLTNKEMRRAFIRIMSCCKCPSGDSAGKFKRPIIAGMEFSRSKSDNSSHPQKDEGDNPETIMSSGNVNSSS
T4 sequence (Q99500 whole entry): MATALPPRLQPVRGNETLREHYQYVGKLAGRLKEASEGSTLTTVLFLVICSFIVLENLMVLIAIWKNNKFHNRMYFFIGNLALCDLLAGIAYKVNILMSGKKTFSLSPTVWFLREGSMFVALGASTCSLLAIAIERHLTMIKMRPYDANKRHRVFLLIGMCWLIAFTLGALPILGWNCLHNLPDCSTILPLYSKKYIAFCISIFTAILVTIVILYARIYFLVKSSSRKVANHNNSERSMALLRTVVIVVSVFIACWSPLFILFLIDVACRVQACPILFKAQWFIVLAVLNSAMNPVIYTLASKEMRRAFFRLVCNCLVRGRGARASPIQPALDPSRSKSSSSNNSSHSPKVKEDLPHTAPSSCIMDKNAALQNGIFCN

SMILES	EC50 [1]	EC50 [2]	EC50 [3]	EC50 [4]
O=C(O)CCN1CCc2nc(-c3ccc(OCc4ccc5c(c4)CCC5)cc3)ccc2C1 [Compound 162, 3-(2-(4-((5-indanyl)methoxy)phenyl)-7,8-dihydro-1,6-naphthyridin-6(5H)-yl)propanoic acid]	< 10 nM	> 1000 nM	> 1000 nM	> 1000 nM
CC(CC(=O)O)CN1CCc2nc(-c3ccc(OCc4ccc(Cl)cc4)cc3)ncc2C1 (racemic) [Compound 23, 4-(2-(4-((4-chlorobenzyl)oxy)phenyl)-7,8-dihydropyrido[4,3-d]pyrimidin-6(5H)-yl)-3-methylbutanoic acid]	< 10 nM	> 1000 nM	> 1000 nM	> 1000 nM
O=C(O)C1CC(N2CCc3nc(C#Cc4cc(F)cc(F)c4)ccc3C2)C1 (centres unmarked) [Compound 127, 3-(2-((3,5-difluorophenyl)ethynyl)-7,8-dihydro-1,6-naphthyridin-6(5H)-yl)cyclobutanecarboxylic acid]	1000 to 10000 nM	> 1000 nM	> 1000 nM	> 1000 nM
CC(CC(=O)O)CN1CCc2nc(-c3ccc(OCc4ccccc4Cl)cc3F)ncc2C1 (centres unmarked) [Compound 284, 4-[2-[4-[(2-chlorophenyl)methoxy]-2-fluoro-phenyl]-7,8-dihydro-5H-pyrido[4,3-d]pyrimidin-6-yl]-3-methyl-butanoic acid 2,2,2-trifluoroacetic acid salt]	10 to 100 nM	> 1000 nM	> 1000 nM	> 1000 nM
O=C(O)CC1(CN2CCc3nc(-c4ccc(OCc5ccc(Cl)cc5)cc4)ncc3C2)CC1 [Compound 281, 2-((4(2-(4-((4-chlorobenzyl)oxy)phenyl)-7,8-dihydropyrido[4,3-d]pyrimidin-6(5H)-yl)methyl)cyclopropyl)acetic acid]	10 to 100 nM	> 1000 nM	> 1000 nM	> 1000 nM
O=C(O)CCN1CCc2nc(-c3ccc(OCc4cccc(C(F)(F)F)c4)cc3)ccc2C1 [Compound 157, 3-(2-(4-((3-trifluoromethylbenzyl)oxy)phenyl)-7,8-dihydro-1,6-naphthyridin-6(5H)-yl)propanoic acid]	< 10 nM	> 1000 nM	> 1000 nM	> 1000 nM
O=C(O)CN1CCc2nc(-c3ccc(OCc4cccc(Cl)c4)cc3)ncc2C1 [Compound 32, 2-(2-(4-((3-chlorobenzyl)oxy)phenyl)-7,8-dihydropyrido[4,3-d]pyrimidin-6(5H)-yl)acetic acid]	100 to 1000 nM	> 1000 nM	> 1000 nM	> 1000 nM
O=C(O)CCN1CCc2nc(-c3ccc(OCc4cccc(OC(F)(F)F)c4)cc3)ncc2C1 [Compound 82, 3-(2-(4-((3-(trifluoromethoxy)benzyl)oxy)phenyl)-7,8-dihydropyrido[4,3-d]pyrimidin-6(5H)-yl)propanoic acid]	< 10 nM	> 1000 nM	> 1000 nM	> 1000 nM
O=C(O)C1(CN2CCc3nc(-c4ccc(OCc5ccc(Cl)cc5)cc4)ncc3C2)CC1 [Compound 215, 1-((2-(4-((4-chlorobenzyl)oxy)phenyl)-7,8-dihydropyrido[4,3-d]pyrimidin-6(5H)-yl)methyl)cyclopropanecarboxylic acid]	1000 to 10000 nM	> 1000 nM	> 1000 nM	> 1000 nM
O=C(O)CCN1CCc2nc(-c3ccc(OCc4ccc(Cl)cc4)cc3)cnc2C1 [Compound 178, 3-(2-(4-((4-chlorobenzyl)oxy)phenyl)-7,8-dihydropyrido[3,4-b]pyrazin-6(5H)-yl)propanoic acid]	< 10 nM	> 1000 nM	> 1000 nM	> 1000 nM
CC(CC(=O)O)CN1CCc2nc(-c3ccc(OCc4ccc(Cl)c(Cl)c4)cc3F)ncc2C1 (centres unmarked) [Compound 271, 4-[2-[4-[(3,4-dichlorophenyl)methoxy]-2-fluoro-phenyl]-7,8-dihydro-5H-pyrido[4,3-d]pyrimidin-6-yl]-3-methyl-butanoic acid 2,2,2-trifluoroacetic acid salt]	10 to 100 nM	> 1000 nM	> 1000 nM	> 1000 nM
O=C(O)C1CC(N2CCc3nc(C#Cc4ccc(F)cc4)ccc3C2)C1 (centres unmarked) [Compound 123, 3-(2-((4-fluorophenyl)ethynyl)-7,8-dihydro-1,6-naphthyridin-6(5H)-yl)cyclobutanecarboxylic acid]	1000 to 10000 nM	> 1000 nM	> 1000 nM	> 1000 nM
Cc1cccc(C)c1COc1ccc(-c2ncc3c(n2)CCN(CC(=O)O)C3)cc1 [Compound 33, 2-(2-(4-((2,6-dimethylbenzyl)oxy)phenyl)-7,8-dihydropyrido[4,3-d]pyrimidin-6(5H)-yl)acetic acid]	100 to 1000 nM	> 1000 nM	< 1000 nM	< 1000 nM
CC(CC(=O)O)CN1CCc2nc(-c3ccc(OCc4ccccc4F)cc3F)ncc2C1 (centres unmarked) [Compound 242, 4-[2-[2-fluoro-4-[(2-fluorophenyl)methoxy]phenyl]-7,8-dihydro-5H-pyrido[4,3-d]pyrimidin-6-yl]-3-methyl-butanoic acid 2,2,2-trifluoroacetic acid salt]	< 10 nM	> 1000 nM	> 1000 nM	> 1000 nM
O=C(O)CCN1CCc2nc(-c3ccc(OCc4cccc(F)c4)cc3)ccc2C1 [Compound 133, 3-(2-(4-((3-fluorobenzyl)oxy)phenyl)-7,8-dihydro-1,6-naphthyridin-6(5H)-yl)propanoic acid]	< 10 nM	> 1000 nM	> 1000 nM	> 1000 nM
CC(CCC(=O)O)N1CCc2nc(-c3ccc(Cc4ccccc4)cc3)ncc2C1 (centres unmarked) [Compound 214, 4-(2-(4-benzylphenyl)-7,8-dihydropyrido[4,3-d]pyrimidin-6(5H)-yl)pentanoic acid]	1000 to 10000 nM	> 1000 nM	> 1000 nM	> 1000 nM
CC(CC(=O)O)CN1CCc2nc(-c3ccc(OCc4ccc(C(F)(F)F)cc4)cc3F)ncc2C1 (centres unmarked) [Compound 263, 4-[2-[2-fluoro-4-[[4-(trifluoromethyl)phenyl]methoxy]phenyl]-7,8-dihydro-5H-pyrido[4,3-d]pyrimidin-6-yl]-3-methyl-butanoic acid 2,2,2-trifluoroacetic acid salt]	10 to 100 nM	> 1000 nM	> 1000 nM	> 1000 nM
O=C(O)C1CC(N2CCc3nc(C#Cc4ccccc4)ccc3C2)C1 (centres unmarked) [Compound 119, 3-(2-(phenylethynyl)-7,8-dihydro-1,6-naphthyridin-6(5H)-yl)cyclobutanecarboxylic acid]	1000 to 10000 nM	> 1000 nM	> 1000 nM	> 1000 nM
CC(C)(C)c1ccc(COc2ccc(-c3ccc4c(n3)CCN(CCC(=O)O)C4)cc2)cc1 [Compound 156, 3-(2-(4-((4-(tert-butyl)benzyl)oxy)phenyl)-7,8-dihydro-1,6-naphthyridin-6(5H)-yl)propanoic acid]	< 10 nM	> 1000 nM	> 1000 nM	> 1000 nM
Cc1ccc(COc2ccc(-c3ncc4c(n3)CCN(CCC(=O)O)C4)cc2)cc1C(F)(F)F [Compound 89, 3-(2-(4-((4-methyl-3-(trifluoromethyl)benzyl)oxy)phenyl)-7,8-dihydropyrido[4,3-d]pyrimidin-6(5H)-yl)propanoic acid]	< 10 nM	> 1000 nM	> 1000 nM	> 1000 nM
O=C(O)CC1CC(N2CCc3nc(-c4ccc(OCc5cccc(Cl)c5)cc4)ncc3C2)C1 (centres unmarked) [Compound 3, 2-(3-(2-(4-((3-chlorobenzyl)oxy)phenyl)-7,8-dihydropyrido[4,3-d]pyrimidin-6(5H)-yl)cyclobutyl)acetic acid]	100 to 1000 nM	> 1000 nM	> 1000 nM	> 1000 nM
Cc1ccc(C(F)(F)F)c(COc2ccc(-c3ncc4c(n3)CCN(CC(C)CC(=O)O)C4)cc2)c1 (centres unmarked) [Compound 275, 3-methyl-4-[2-[4-[[5-methyl-2-(trifluoromethyl)phenyl]methoxy]phenyl]-7,8-dihydro-5H-pyrido[4,3-d]pyrimidin-6-yl]butanoic acid 2,2,2-trifluoroacetic acid salt]	10 to 100 nM	> 1000 nM	> 1000 nM	> 1000 nM
CC(CC(=O)O)CN1CCc2nc(-c3ccc(C(F)Cc4ccc(Cl)cc4F)cc3)ncc2C1 (centres unmarked) [Compound 253]	< 10 nM	> 1000 nM	> 1000 nM	> 1000 nM
Cc1cc(-c2ncc3c(n2)CCN(C[C@H](C)CC(=O)O)C3)ccc1OCc1ccccc1 [Compound 319, (R)-4-(2-(4-(benzyloxy)-3-methylphenyl)-7,8-dihydropyrido[4,3-d]pyrimidin-6(5H)-yl)-3-methylbutanoic acid]	100 to 1000 nM	> 1000 nM	> 1000 nM	–
CC(CC(=O)O)CN1CCc2nc(-c3ccc(CCc4ccccc4)cc3F)ncc2C1 (centres unmarked) [Compound 280, 4-(2-(2-fluoro-4-phenethylphenyl)-7,8-dihydropyrido[4,3-d]pyrimidin-6(5H)-yl)-3-methylbutanoic acid]	10 to 100 nM	> 1000 nM	> 1000 nM	–
